In ChEMBL document CHEMBL1149829, “Terpenoids Produced by Actinomycetes: Napyradiomycins from Streptomyces antimycoticus NT17” (2008) one finds MIC data, which are given here for 2 compounds.

Values after ≈ are worked out from the molar mass of the structure shown.

What all share (assay type): functional
The subject of one test is Enterococcus faecium. As to the kind of experiment: Antibacterial activity against Enterococcus faecium ATCC 19434 in Mueller Hinton agar medium.
The next test concerns Staphylococcus aureus. The experiment in a line: Antibacterial activity against Staphylococcus aureus 209P JC1 in Mueller Hinton agar medium.
The subject of a further test is Bacillus subtilis. The experiment in a line: Antibacterial activity against Bacillus subtilis ATCC 6633 in Mueller Hinton agar medium.
The next test relates to Enterococcus faecalis. As to the kind of experiment: Antibacterial activity against Enterococcus faecalis ATCC 19433 in Mueller Hinton agar medium.
For the next test, the system named is Streptococcus pyogenes. As to the kind of experiment: Antibacterial activity against Streptococcus pyogenes ATCC 12344 in Mueller Hinton agar medium.

Take `CC(C)=CCC/C(C)=C/C[C@@]12OC(C)(C)[C@H](Cl)C[C@]1(Cl)C(=O)C1=C(C2=O)C(=[N+]=[N-])C(=O)C=C1O`: the MIC (commonly the least concentration at which growth counts as inhibited) in the test with Enterococcus faecium is 15.8 µM (≈ 8.02 µg/mL); with Staphylococcus aureus it was 2 µM (≈ 1.01 µg/mL); in the test with Bacillus subtilis it was 1 µM (≈ 0.507 µg/mL); against Enterococcus faecalis, 31.6 µM (≈ 16 µg/mL); in the test on Streptococcus pyogenes it was 7.8 µM (≈ 3.96 µg/mL).
For the compound `C=C1CC[C@H](Cl)C(C)(C)[C@@H]1C[C@@]12OC(C)(C)[C@H](Cl)C[C@]1(Cl)C(=O)C1=C(C2=O)C(=[N+]=[N-])C(=O)C=C1O`, the MIC against Enterococcus faecium is 14.8 µM (≈ 8.02 µg/mL); in the test with Staphylococcus aureus, 3.7 µM (≈ 2 µg/mL); in the test with Bacillus subtilis, 3.7 µM (≈ 2 µg/mL); in the test with Enterococcus faecalis it was 14.8 µM (≈ 8.02 µg/mL).
